Key:
Assay in all cases: relative viability (nuclei count vs DMSO), 5 days (fraction); higher = more cells survive
NCI-H727 = tested on: NCI-H727
Outline: (§1)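 A single step with final 0.05% Triton X-100, 1% formaldehyde and 1 ug/ml Hoechst fixed the cells and stained nuclei 5 days after treatment. Lung cancer cell lines in 1536-well plates had been treated by pin tool the day after seeding with one drug alone or a fixed anchor-drug dose plus five library-drug doses (not always all listed) in √10 steps, and nuclei were counted on 4× images. Relative viability is the ratio of nuclei in treated wells to nuclei in vehicle wells, taken as the median of duplicate plates.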

EMC-BAC-2 = tested on: EMC-BAC-2
Outline: as §1

PC-3 [JPC-3] = tested on: PC-3 [JPC-3]
Outline: as §1

NCI-H3122 = tested on: NCI-H3122
Outline: as §1

HARA = tested on: HARA
Outline: as §1

NCI-H2228 = tested on: NCI-H2228
Outline: as §1

NCI-H1944 = tested on: NCI-H1944
Outline: as §1

NCI-H1792 = tested on: NCI-H1792
Outline: as §1

LK-2 = tested on: LK-2
Outline: as §1

NCI-H322M = tested on: NCI-H322M
Outline: as §1

For `COc1cc2nccc(Oc3ccc(NC(=O)Nc4cc(C)on4)c(Cl)c3)c2cc1OC` [Tivozanib] + CS(=O)(=O)N1CCN(Cc2cc3nc(-c4cccc5[nH]ncc45)nc(N4CCOCC4)c3s2)CC1 [Pictilisib] (partner 1 µM), the relative viability (NCI-H727; first compound 0.005 µM) was 0.349, the relative viability (NCI-H727; first compound 0.01581 µM) was 0.56 and the relative viability (NCI-H727; first compound 0.05 µM) was 0.351. For the same compound, the relative viability (NCI-H727; first compound 0.5 µM) was 0.398, the relative viability (EMC-BAC-2; first compound 0.005 µM) was 0.561 and the relative viability (EMC-BAC-2; first compound 0.01581 µM) was 0.529. The relative viability (EMC-BAC-2; first compound 0.05 µM) was 0.554, the relative viability (EMC-BAC-2; first compound 0.1581 µM) was 0.389 and the relative viability (EMC-BAC-2; first compound 0.5 µM) was 0.578. The relative viability (PC-3 [JPC-3]; first compound 0.005 µM) was 0.705, the relative viability (PC-3 [JPC-3]; first compound 0.01581 µM) was 0.698 and the relative viability (PC-3 [JPC-3]; first compound 0.05 µM) was 0.757. For the same compound, the relative viability (PC-3 [JPC-3]; first compound 0.1581 µM) was 0.604, the relative viability (PC-3 [JPC-3]; first compound 0.5 µM) was 0.706 and the relative viability (NCI-H3122; first compound 0.005 µM) was 0.568. For the same compound, the relative viability (NCI-H3122; first compound 0.01581 µM) was 0.547, the relative viability (NCI-H3122; first compound 0.05 µM) was 0.598 and the relative viability (NCI-H3122; first compound 0.1581 µM) was 0.644. For the same compound, the relative viability (NCI-H3122; first compound 0.5 µM) was 0.789, the relative viability (HARA; first compound 0.005 µM) was 0.395 and the relative viability (HARA; first compound 0.01581 µM) was 0.312. The relative viability (HARA; first compound 0.05 µM) was 0.485, the relative viability (HARA; first compound 0.1581 µM) was 0.309 and the relative viability (HARA; first compound 0.5 µM) was 0.603. The relative viability (NCI-H2228; first compound 0.005 µM) was 0.402, the relative viability (NCI-H2228; first compound 0.01581 µM) was 0.421 and the relative viability (NCI-H2228; first compound 0.05 µM) was 0.528. It also gave a relative viability (NCI-H2228; first compound 0.1581 µM) of 0.297, a relative viability (NCI-H2228; first compound 0.5 µM) of 0.514 and a relative viability (NCI-H1944; first compound 0.005 µM) of 0.327. For the same compound, the relative viability (NCI-H1944; first compound 0.01581 µM) was 0.365, the relative viability (NCI-H1944; first compound 0.05 µM) was 0.356 and the relative viability (NCI-H1944; first compound 0.1581 µM) was 0.289. The relative viability (NCI-H1944; first compound 0.5 µM) was 0.307, the relative viability (NCI-H1792; first compound 0.005 µM) was 0.248 and the relative viability (NCI-H1792; first compound 0.01581 µM) was 0.27. It also gave a relative viability (NCI-H1792; first compound 0.05 µM) of 0.289, a relative viability (NCI-H1792; first compound 0.1581 µM) of 0.283 and a relative viability (NCI-H1792; first compound 0.5 µM) of 0.274. The relative viability (LK-2; first compound 0.005 µM) was 0.574, the relative viability (LK-2; first compound 0.01581 µM) was 0.472 and the relative viability (LK-2; first compound 0.05 µM) was 0.6. The relative viability (LK-2; first compound 0.1581 µM) was 0.459, the relative viability (LK-2; first compound 0.5 µM) was 0.909 and the relative viability (NCI-H322M; first compound 0.005 µM) was 0.484. It also gave a relative viability (NCI-H322M; first compound 0.01581 µM) of 0.518, a relative viability (NCI-H322M; first compound 0.05 µM) of 0.529 and a relative viability (NCI-H322M; first compound 0.1581 µM) of 0.465. It also gave a relative viability (NCI-H322M; first compound 0.5 µM) of 0.568.

Source: the supplement of paper PMC10307832
